Counter-ions that a name gives are not always drawn.
Target: T1, protocollagen-proline hydroxylase (Gallus gallus, UniProt P16924)
T1 construct: partially purified enzyme preparation obtained from chick embryos; from tissue; host or cells: chick embryos (partially purified enzyme)
T1 sequence (P16924 1-516): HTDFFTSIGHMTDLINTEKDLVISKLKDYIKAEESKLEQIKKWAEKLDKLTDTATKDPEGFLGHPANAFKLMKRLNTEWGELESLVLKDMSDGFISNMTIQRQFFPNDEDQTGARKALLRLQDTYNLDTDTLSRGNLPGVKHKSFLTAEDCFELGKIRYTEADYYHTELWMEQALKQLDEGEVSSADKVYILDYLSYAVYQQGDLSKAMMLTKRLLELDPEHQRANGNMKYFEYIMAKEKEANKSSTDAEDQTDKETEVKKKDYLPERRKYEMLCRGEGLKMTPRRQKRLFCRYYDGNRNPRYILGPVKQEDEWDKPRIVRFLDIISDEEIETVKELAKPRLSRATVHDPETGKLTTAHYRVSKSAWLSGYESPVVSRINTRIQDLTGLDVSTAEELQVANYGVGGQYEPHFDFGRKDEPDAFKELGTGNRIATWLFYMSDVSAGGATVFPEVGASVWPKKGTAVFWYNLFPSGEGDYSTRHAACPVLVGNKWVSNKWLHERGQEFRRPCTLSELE
T1 sequence (P09102 23-515 partner): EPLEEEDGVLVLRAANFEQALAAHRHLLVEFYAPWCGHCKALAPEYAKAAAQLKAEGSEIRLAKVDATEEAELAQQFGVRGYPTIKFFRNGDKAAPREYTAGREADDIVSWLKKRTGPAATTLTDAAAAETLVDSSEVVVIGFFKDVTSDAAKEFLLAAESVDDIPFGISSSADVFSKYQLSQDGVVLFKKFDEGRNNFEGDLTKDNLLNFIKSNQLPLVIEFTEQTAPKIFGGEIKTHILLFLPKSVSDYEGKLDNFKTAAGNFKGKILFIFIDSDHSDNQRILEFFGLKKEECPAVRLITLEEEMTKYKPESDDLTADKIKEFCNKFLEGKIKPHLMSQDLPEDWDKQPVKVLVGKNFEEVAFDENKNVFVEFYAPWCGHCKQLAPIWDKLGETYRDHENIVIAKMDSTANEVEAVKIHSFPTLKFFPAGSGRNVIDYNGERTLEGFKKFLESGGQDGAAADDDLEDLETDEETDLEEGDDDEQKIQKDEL
Assay: Inhibitory activity of protocollagen-proline hydroxylase
Format: biochemical, chick embryos
Details: for inhibition at 10 µM / Inhibition of protocollagen-proline hydroxylase: 10 μM
Source text: Determination of this inhibitory activity was made by the method of R. E. Rhoads et al. [Methods in Enzymology XVII B, 306 (1971)] using a partially purified enzyme preparation obtained from chick embryos in accordance with the methods of K. I. Kivirriko et al. and J. Halme et al. [J. Biol, Chem. 242, 4007 (1967) and Biochim. Biophys. Acta 198, 460 (1967)] and, as a substrate, (Pro-Pro-Gly)5.4H2 O[prepared by the Protein Research Foundation, Osaka]. In this procedure, the partially purified enzyme was used in an amount of 100 μg as protein.

inhibition at 20 µM | inhibition at 10 µM | inhibition at 50 µM | Compound | further results
20% | – | – | COC1=C(OC)C(=O)C(CCC(=O)N[C@@H](CCC(=O)O)C(=O)O)=C(C)C1=O [m:0, n:2, Z:COGlu, 3-(2,3-dimethoxy-5-methylbenzoquinon-6-yl)propionyl-L-glutamic acid] | –
38% | – | – | COC1=C(OC)C(=O)C(CCCCCCCCCC(=O)N[C@@H](CCSC)C(=O)O)=C(C)C1=O [m:0, n:9, Z:COMet, 10-(2,3-dimethoxy-5-methyl-1,4-benzoquinon-6-yl)decanoyl-L-methionine] | –
78% | – | – | COC1=C(OC)C(=O)C(CN2CCOCC2)=C(C)C1=O | –
76% | 54% | 84% | COC1=C(OC)C(=O)C(c2nc3cc(C(C)C(=O)O)ccc3o2)=C(C)C1=O (stereo not drawn) | –
52% | – | – | COC1=C(OC)C(=O)C(CCCCCCCCCC(=O)N[C@@H](Cc2c[nH]cn2)C(=O)O)=C(C)C1=O [m:0, n:9, Z:COHis, 10-(2,3-dimethoxy-5-methyl-1,4-benzoquinon-6-yl)decanoyl-L-histidine] | –
– | – | – | COC1=C(OC)C(=O)C(CCCCCCCCCCN2CCOCC2)=C(C)C1=O | inhibition at 25 µM (25 μM): 30%
35% | – | – | COC1=C(OC)C(=O)C(CCCCCCCCCC(=O)N[C@H](Cc2ccccc2)C(=O)O)=C(C)C1=O [m:0, n:9, Z:COPhe, 10-(2,3-dimethoxy-5-methyl-1,4-benzoquinon-6-yl)decanoyl-D-phenylalanine] | –
15% | – | – | COC1=C(OC)C(=O)C(CCCCCCCCCC(=O)N[C@@H](Cc2c[nH]c3ccccc23)C(=O)O)=C(C)C1=O [m:0, n:9, Z:COTrp, 10-(2,3-dimethoxy-5-methyl-1,4-benzoquinon-6-yl)decanoyl-L-tryptophan] | –
48% | 34% | 92% | COC1=C(OC)C(=O)C(CC=C(C)COc2ccc(CC(=O)O)cc2)=C(C)C1=O [drawing 20] | –
32% | – | – | COC1=C(OC)C(=O)C(CCCCCCCCCC(=O)OC[C@H]2OC(O)[C@H](NC(C)=O)[C@@H](O[C@H](C)C(=O)O)[C@@H]2O)=C(C)C1=O (stereo partly drawn) [m:0, n:9, Z:COMurNAc, N-acetyl-6O-[10-(2,3-dimethoxy-5-methyl-1,4-benzoquinon-6-yl)decanoyl]muraminic acid] | –
46% | 37% | 68% | COC1=C(OC)C(=O)C(/C=C/C(=O)O)=C(C)C1=O [drawing 25] | inhibition at 2.5 µM: 0%; inhibition at 5 µM: 22%
25% | – | – | COC1=C(OC)C(=O)C(CCCCCCCCCC(=O)N[C@@H](CCCCN)C(=O)O)=C(C)C1=O [m:0, n:9, Z:COLys, 10-(2,3-dimethoxy-5-methyl-1,4-benzoquinon-6-yl)decanoyl-L-lysine] | –
32% | – | – | COC1=C(OC)C(=O)C(CCC(=O)N[C@@H](C)C(=O)O)=C(C)C1=O [m:0, n:2, Z:CoAla, 3-(2,3-dimethoxy-5-methyl-1,4-benzoquinon-6-yl)propionyl-L-alanine] | –
67% | 38% | 76% | COC(=O)/C=C/C=C/C=C/C=C/C1=C(C)C(=O)C(OC)=C(OC)C1=O | –
37% | – | – | COC1=C(OC)C(=O)C(CCCCCCCCCC(=O)NC(CCC(=O)O)C(=O)O)=C(C)C1=O (stereo not drawn) [m:0, n:9, Z:COGlu] | –
56% | – | – | COC1=C(OC)C(=O)C(CCC(=O)N[C@@H](CCCNC(=N)N)C(=O)O)=C(C)C1=O [m:0, n:2, Z:COArg (salt of acetic acid), 3-(2,3-dimethoxy-5-methyl-1,4-benzoquinon-6-yl)propionyl-L-arginine] | –
46% | – | – | COC1=C(OC)C(=O)C(CCC(=O)NCC(=O)O)=C(C)C1=O [m:0, n:2, Z:COGly, 3-(2,3-dimethoxy-5-methyl-1,4-benzoquinone-6-yl)propionyl-glycine] | –
35% | – | – | COC1=C(OC)C(=O)C(CCC(=O)N2CCC[C@H]2C(=O)O)=C(C)C1=O [m:0, n:2, Z:COPro, 3-(2,3-dimethoxy-5-methyl-1,4-benzoquinon-6-yl)propionyl-L-proline] | –
100% | 100% | 100% | COC1=C(OC)C(=O)C(CCOc2ccc(CC(=O)O)cc2)=C(C)C1=O | inhibition at 2.5 µM: 64%; inhibition at 5 µM: 74%; Inhibition of protocollagen-proline hydroxylase: 82%
100% | 99.9% | 100% | COC1=C(OC)C(=O)C(CCOc2ccc(/C=C/C(=O)O)cc2)=C(C)C1=O | inhibition at 2.5 µM: 62%; inhibition at 5 µM: 72%
52% | – | – | COC1=C(OC)C(=O)C(CCCCCCCCCC(=O)N[C@H]2C(O)O[C@H](CO)[C@@H](O)[C@@H]2O)=C(C)C1=O (stereo partly drawn) [m:0, n:9, Z:COGlcN, N-[10-(2,3-dimethoxy-5-methyl-1,4-benzoquinon-6-yl)decanoyl]glucosamine] | –
35% | – | – | COC1=C(OC)C(=O)C(CCCCCCCCCC(=O)N2CSCC2C(=O)O)=C(C)C1=O (stereo not drawn) | –
100% | 100% | 100% | COC1=C(OC)C(=O)C(COc2ccc(C(C)C(=O)O)cc2)=C(C)C1=O (stereo not drawn) | inhibition at 2.5 µM: 70%; inhibition at 5 µM: 75%; Inhibition of protocollagen-proline hydroxylase: 92%
52% | – | – | COC1=C(OC)C(=O)C(CCCCCCCCCC(=O)N[C@@H](CCCNC(=N)N)C(=O)O)=C(C)C1=O [m:0, n:9, Z:COArg (salt of acetic acid), 10-(2,3-dimethoxy-5-methyl-1,4-benzoquinon-6-yl)decanoyl-L-arginine] | –
92% | 85% | 92% | COC1=C(OC)C(=O)C(/C=C/C(C)=O)=C(C)C1=O [drawing 26] | inhibition at 2.5 µM: 51%; inhibition at 5 µM: 72%
35% | – | – | COC1=C(OC)C(=O)C(CCC(=O)N[C@@H](Cc2ccc(O)cc2)C(=O)O)=C(C)C1=O [m:0, n:2, Z:COTyr, 3-(2,3-dimethoxy-5-methyl-1,4-benzoquinon-6-yl)propionyl-L-tyrosine] | –

— patent US4874752A, “Benzoquinone derivatives and production thereof” (Takeda Chemical Industries, Ltd., priority 1982, dated 1989)
